# How the values were obtained:
# AURKC = molecular target: T1, AURKC (Homo sapiens, UniProt Q9UQB9); assay: KINOMEscan panel screen; assay type: binding; settings: read-out: Percent Control(%)
# T1 construct: purchased DiscoveRx KINOMEscan (Ambit Biosciences)
# KIT(V559D,V654A) = molecular target: T2, KIT(V559D,V654A) (Homo sapiens, UniProt P10721, V559D/V654A); assay: KINOMEscan panel screen; assay type: binding; settings: read-out: Percent Control(%)
# T2 construct: purchased DiscoveRx KINOMEscan (Ambit Biosciences)
# BMPR1B = molecular target: T3, BMPR1B (Homo sapiens, UniProt O00238); assay: KINOMEscan panel screen; assay type: binding; settings: read-out: Percent Control(%)
# T3 construct: purchased DiscoveRx KINOMEscan (Ambit Biosciences)
# SRPK3 = molecular target: T4, SRPK3 (Homo sapiens, UniProt Q9UPE1); assay: KINOMEscan panel screen; assay type: binding; settings: read-out: Percent Control(%)
# T4 construct: purchased DiscoveRx KINOMEscan (Ambit Biosciences)
# MDA-MB-231 = assay: MTT cell viability assay; settings: Homo sapiens, MDA-MB-231, 72 h
# TGFBR1 = molecular target: T5, TGFBR1 (Homo sapiens, UniProt P36897); assay: KINOMEscan kinase binding assay (Kd)
# T5 construct: DNA tag (qPCR read-out); purchased Ambit Biosciences (KINOMEscan service)
# CSNK1G3 = molecular target: T6, CSNK1G3 (Homo sapiens, UniProt Q9Y6M4); assay: KINOMEscan panel screen; assay type: binding; settings: read-out: Percent Control(%)
# T6 construct: purchased DiscoveRx KINOMEscan (Ambit Biosciences)
# BMPR1A = molecular target: T7, BMPR1A (Homo sapiens, UniProt P36894); assay: KINOMEscan panel screen; assay type: binding; settings: read-out: Percent Control(%)
# T7 construct: purchased DiscoveRx KINOMEscan (Ambit Biosciences)
# FGFR1 = molecular target: T8, FGFR1 (Homo sapiens, UniProt P11362); assay: KINOMEscan panel screen; assay type: binding; settings: read-out: Percent Control(%)
# T8 construct: purchased DiscoveRx KINOMEscan (Ambit Biosciences)
# MRCKB = molecular target: T9, MRCKB (Homo sapiens, UniProt Q9Y5S2); assay: KINOMEscan panel screen; assay type: binding; settings: read-out: Percent Control(%)
# T9 construct: purchased DiscoveRx KINOMEscan (Ambit Biosciences)
# ERBB2 = ERBB2 (Homo sapiens, UniProt P04626); assay: KINOMEscan kinase binding assay (Kd)
# TEC = molecular target: T10, TEC (Homo sapiens, UniProt P42680); assay: KINOMEscan panel screen; assay type: binding; settings: read-out: Percent Control(%)
# T10 construct: purchased DiscoveRx KINOMEscan (Ambit Biosciences)
# [1] = system: HSCs (LSK cells), WBC and RBC; assay: Influence on normal HSCs and blood cells in Balb/c mice; assay type: in vivo, mouse; settings: Balb/c mice, 1, 3, 10 mg/kg/d orally for 21 days
# Experimental: To examine whether SKLB-677 has influence on normal HSCs and normal blood cells, we performed an experiment using a Balb/c mouse model, in which Balb/c mice (n = 8 in each group) were treated with indicated concentrations of SKLB-677 for 21 days, followed by detections of the proportion of HSCs (immunophenotypically characterized as Lineage^−Sca-1^+ c-Kit^+ (LSK) cells), white blood cell (WBC) and red blood cell (RBC) counts. […]
# were d etected usin g BD FACSAriaⅢflow c ytometer.
# Isolation of murine Bone Marrow ( BM) cells.
# Balb/c mice were grouped to 4 groups (4 female mice and 4 male mice p er group) and orally treated with 0, 1, 3, and 10m g/kg/ d SKLB -677 for 21 da ys . […]
# Supplementary Figure S7.The influence of SKLB -677 on mouse normal HSC and blood cells (8 mice in each group) . a ,b, The mice were o rally treat ed with indicated concentr ations o f S K LB -677 for 21d, and then W BC and RBC were counted using a blood anal yzer instrument. ns, not statistically significant. c , Th e mice were orally treated with indicated do ses of SK LB-677 for 21d, and the blood marrow cells were collected for the detection of HSC (immunophenot ypicall y ch aracterized as Lineage-Sca-1+c-Kit+, LSK) populationusing corresponding antibodies. d, The statistical data of HSC numbers. ns, not statistically significant. […]
# MAP3K3 = molecular target: T11, MAP3K3 (Homo sapiens, UniProt Q99759); assay: KINOMEscan panel screen; assay type: binding; settings: read-out: Percent Control(%)
# T11 construct: purchased DiscoveRx KINOMEscan (Ambit Biosciences)
# CHEK1 = molecular target: T12, CHEK1 (Homo sapiens, UniProt O14757); assay: KINOMEscan panel screen; assay type: binding; settings: read-out: Percent Control(%)
# T12 construct: purchased DiscoveRx KINOMEscan (Ambit Biosciences)
# T12 sequence (O14757 1-476): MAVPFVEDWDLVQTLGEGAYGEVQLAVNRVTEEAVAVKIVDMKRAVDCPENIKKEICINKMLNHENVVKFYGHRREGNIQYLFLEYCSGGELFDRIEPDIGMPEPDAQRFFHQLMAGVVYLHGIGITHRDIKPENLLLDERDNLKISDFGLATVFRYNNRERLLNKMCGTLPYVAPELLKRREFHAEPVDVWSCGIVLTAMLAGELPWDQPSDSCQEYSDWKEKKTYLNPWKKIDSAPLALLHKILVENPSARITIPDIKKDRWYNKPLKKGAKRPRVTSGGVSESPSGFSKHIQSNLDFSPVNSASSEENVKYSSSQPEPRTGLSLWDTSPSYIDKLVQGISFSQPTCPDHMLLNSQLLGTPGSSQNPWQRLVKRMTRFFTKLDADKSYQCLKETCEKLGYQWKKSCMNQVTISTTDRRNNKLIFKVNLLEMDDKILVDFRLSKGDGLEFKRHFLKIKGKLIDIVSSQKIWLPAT
# ROCK1 = ROCK1 (Homo sapiens, UniProt Q13464); assay: KINOMEscan panel screen; assay type: binding; settings: read-out: Percent Control(%)
# [2] = molecular target: T13, ABL1(F317L)-phosphorylated (Homo sapiens, UniProt P00519, F317L); assay: KINOMEscan panel screen; assay type: binding; settings: read-out: Percent Control(%)
# T13 construct: purchased DiscoveRx KINOMEscan (Ambit Biosciences)
# BRAF = molecular target: T14, BRAF (Homo sapiens, UniProt P15056); assay: KINOMEscan panel screen; assay type: binding; settings: read-out: Percent Control(%)
# T14 construct: purchased DiscoveRx KINOMEscan (Ambit Biosciences)
# ERK5 = molecular target: T15, ERK5 (Homo sapiens, UniProt Q13164); assay: KINOMEscan panel screen; assay type: binding; settings: read-out: Percent Control(%)
# T15 construct: purchased DiscoveRx KINOMEscan (Ambit Biosciences)
# [3] = molecular target: T16, RPS6KA4(Kin.Dom.1-N-terminal) (Homo sapiens, UniProt O75676); assay: KINOMEscan panel screen; assay type: binding; settings: read-out: Percent Control(%)
# T16 construct: RPS6KA4(Kin.Dom.1-N-terminal); purchased DiscoveRx KINOMEscan (Ambit Biosciences)
# ULK3 = molecular target: T17, ULK3 (Homo sapiens, UniProt Q6PHR2); assay: KINOMEscan panel screen; assay type: binding; settings: read-out: Percent Control(%)
# T17 construct: purchased DiscoveRx KINOMEscan (Ambit Biosciences)
# T17 sequence (Q6PHR2 whole entry): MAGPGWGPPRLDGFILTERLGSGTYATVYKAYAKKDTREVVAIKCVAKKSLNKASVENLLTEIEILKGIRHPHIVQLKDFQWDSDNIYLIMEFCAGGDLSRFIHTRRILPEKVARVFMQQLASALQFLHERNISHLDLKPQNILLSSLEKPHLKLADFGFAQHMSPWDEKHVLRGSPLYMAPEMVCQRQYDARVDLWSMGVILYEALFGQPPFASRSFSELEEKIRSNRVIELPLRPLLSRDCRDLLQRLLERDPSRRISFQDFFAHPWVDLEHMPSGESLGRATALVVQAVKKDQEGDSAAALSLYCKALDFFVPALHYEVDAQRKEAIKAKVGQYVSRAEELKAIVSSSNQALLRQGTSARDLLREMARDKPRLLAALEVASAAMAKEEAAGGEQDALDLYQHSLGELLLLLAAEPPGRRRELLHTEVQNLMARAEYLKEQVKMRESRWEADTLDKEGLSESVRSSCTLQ
# T15 sequence (Q13164 whole entry): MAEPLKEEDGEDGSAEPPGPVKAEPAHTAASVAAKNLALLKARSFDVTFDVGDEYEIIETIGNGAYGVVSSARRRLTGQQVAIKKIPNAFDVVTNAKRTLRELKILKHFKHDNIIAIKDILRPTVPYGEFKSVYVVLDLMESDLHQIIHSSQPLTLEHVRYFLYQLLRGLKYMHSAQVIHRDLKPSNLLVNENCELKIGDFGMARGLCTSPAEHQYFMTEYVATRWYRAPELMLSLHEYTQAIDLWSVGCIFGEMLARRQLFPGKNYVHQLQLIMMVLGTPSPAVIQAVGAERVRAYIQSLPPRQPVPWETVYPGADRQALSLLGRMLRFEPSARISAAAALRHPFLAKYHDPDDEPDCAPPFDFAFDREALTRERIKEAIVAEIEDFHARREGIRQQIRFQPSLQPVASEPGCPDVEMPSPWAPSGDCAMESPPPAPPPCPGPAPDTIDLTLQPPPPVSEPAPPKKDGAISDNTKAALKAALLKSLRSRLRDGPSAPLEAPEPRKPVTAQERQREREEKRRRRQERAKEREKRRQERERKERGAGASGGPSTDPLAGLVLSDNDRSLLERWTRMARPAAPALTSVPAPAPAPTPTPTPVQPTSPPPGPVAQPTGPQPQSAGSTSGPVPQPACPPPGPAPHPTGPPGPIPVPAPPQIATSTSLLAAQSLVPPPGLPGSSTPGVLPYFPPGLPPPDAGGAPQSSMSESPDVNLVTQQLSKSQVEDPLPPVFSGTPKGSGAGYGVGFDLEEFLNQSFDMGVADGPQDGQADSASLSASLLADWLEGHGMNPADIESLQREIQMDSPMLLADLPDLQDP
# T6 sequence (Q9Y6M4 whole entry): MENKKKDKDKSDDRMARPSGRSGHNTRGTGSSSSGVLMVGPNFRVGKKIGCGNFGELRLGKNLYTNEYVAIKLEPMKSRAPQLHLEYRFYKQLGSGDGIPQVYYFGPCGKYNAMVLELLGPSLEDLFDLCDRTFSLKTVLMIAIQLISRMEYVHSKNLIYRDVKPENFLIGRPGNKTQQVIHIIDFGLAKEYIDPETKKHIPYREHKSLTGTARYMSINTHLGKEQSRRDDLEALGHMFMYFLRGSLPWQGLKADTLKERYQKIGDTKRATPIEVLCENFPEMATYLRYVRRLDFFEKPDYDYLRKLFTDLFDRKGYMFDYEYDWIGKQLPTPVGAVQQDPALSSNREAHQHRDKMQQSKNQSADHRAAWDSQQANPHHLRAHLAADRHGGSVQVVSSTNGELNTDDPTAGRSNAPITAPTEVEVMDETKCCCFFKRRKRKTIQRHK
# T3 sequence (O00238 14-502): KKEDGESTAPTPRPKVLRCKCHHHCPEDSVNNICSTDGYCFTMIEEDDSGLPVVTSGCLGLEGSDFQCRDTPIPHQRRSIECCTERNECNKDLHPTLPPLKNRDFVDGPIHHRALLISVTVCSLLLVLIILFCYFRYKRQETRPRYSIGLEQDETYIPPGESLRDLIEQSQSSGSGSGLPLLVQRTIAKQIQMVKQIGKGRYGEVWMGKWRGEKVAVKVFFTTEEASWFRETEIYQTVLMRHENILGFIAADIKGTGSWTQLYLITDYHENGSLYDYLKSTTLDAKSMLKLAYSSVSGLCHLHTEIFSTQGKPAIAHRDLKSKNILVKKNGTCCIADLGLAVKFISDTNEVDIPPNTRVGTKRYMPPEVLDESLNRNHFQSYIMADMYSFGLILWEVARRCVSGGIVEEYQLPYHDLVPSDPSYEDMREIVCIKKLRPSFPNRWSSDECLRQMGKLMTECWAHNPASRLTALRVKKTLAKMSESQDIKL
# T1 sequence (Q9UQB9 whole entry): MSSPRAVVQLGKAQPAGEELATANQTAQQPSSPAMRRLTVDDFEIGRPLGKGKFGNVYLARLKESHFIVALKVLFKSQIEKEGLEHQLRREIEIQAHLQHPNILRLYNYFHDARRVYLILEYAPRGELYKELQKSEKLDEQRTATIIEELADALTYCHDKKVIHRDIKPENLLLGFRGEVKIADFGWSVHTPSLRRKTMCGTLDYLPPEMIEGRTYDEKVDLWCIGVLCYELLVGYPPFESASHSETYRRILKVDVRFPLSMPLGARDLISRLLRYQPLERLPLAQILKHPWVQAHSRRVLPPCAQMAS
# T7 sequence (P36894 24-532): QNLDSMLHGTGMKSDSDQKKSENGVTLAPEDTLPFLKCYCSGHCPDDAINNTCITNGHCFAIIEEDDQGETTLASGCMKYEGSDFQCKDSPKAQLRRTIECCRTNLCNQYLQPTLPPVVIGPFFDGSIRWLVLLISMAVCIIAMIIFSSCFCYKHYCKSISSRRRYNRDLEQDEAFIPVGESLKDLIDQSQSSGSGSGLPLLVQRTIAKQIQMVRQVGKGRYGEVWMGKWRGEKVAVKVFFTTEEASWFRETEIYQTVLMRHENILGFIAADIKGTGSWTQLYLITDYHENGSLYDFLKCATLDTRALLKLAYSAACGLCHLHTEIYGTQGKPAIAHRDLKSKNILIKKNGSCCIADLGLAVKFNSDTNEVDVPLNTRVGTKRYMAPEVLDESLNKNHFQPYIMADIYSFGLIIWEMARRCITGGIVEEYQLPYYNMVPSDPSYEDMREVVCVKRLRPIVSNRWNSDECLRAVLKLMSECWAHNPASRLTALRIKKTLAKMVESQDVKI
# T5 sequence (P36897 34-503): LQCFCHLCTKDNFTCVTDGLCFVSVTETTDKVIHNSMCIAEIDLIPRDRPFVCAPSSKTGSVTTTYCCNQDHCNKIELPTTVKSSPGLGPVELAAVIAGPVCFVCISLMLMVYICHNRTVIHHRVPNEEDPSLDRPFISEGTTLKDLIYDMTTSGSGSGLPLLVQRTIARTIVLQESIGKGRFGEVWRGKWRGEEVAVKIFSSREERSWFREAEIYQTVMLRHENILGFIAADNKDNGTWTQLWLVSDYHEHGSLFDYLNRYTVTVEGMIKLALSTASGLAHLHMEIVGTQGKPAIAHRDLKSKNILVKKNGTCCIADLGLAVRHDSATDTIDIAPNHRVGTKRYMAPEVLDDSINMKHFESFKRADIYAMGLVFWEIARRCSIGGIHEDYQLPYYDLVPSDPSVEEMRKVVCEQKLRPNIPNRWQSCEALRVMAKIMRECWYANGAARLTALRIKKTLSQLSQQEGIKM
# T13 sequence (P00519 whole entry F317L): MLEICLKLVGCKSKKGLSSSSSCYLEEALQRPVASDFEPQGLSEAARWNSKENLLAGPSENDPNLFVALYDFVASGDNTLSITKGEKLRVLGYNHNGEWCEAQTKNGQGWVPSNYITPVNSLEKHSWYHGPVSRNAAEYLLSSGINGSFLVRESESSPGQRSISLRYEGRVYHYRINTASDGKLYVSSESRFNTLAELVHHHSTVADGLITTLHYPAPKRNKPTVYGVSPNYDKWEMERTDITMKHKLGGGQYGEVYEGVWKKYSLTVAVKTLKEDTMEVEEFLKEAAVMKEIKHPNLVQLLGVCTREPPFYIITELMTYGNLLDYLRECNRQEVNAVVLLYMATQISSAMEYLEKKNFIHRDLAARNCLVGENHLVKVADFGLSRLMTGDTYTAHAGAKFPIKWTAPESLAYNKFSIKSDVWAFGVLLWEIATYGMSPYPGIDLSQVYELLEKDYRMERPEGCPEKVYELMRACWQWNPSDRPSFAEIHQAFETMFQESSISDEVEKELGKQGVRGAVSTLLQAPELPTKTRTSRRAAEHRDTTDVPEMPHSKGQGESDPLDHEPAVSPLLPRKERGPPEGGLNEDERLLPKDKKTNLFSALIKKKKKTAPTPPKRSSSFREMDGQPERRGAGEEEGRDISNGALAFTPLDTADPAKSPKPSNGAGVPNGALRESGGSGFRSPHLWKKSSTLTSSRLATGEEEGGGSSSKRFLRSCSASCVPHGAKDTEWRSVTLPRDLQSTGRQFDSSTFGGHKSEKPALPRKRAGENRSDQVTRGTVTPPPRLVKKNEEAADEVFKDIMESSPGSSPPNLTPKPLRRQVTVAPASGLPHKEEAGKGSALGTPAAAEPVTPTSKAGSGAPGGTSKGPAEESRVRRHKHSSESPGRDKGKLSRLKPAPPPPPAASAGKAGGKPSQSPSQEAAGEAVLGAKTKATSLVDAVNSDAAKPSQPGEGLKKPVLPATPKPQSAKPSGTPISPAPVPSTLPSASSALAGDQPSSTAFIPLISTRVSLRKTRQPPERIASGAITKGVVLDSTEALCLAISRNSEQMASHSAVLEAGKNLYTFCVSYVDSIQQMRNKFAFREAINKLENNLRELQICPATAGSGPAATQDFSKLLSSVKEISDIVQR
# T16 sequence (O75676 33-301 limits assumed): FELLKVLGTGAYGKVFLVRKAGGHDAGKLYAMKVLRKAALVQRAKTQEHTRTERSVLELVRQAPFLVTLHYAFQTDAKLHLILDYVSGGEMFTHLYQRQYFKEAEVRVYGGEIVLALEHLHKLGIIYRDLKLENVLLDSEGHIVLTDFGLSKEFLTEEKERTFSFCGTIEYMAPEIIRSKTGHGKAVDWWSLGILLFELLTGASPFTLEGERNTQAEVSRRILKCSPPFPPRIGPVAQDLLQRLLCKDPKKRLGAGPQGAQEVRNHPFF
structure (smiles),measurement,setting,value
"CC(C)(C)c1cc(NC(=O)Nc2ccc(Oc3ncnc4[nH]ncc34)c(F)c2)no1 [SKLB-677, 1-(4-(1H-pyrazolo[3,4-d]pyrimidin-4-yloxy)-3-fluorophenyl)-3-(5-tert-butylisoxazol-3-yl)urea]",remaining binding at 10 µM,AURKC,1.4%
same,remaining binding at 10 µM,"KIT(V559D,V654A)",1.8%
same,remaining binding at 10 µM,BMPR1B,88%
same,remaining binding at 10 µM,SRPK3,71%
same,IC50,MDA-MB-231,> 10 µM
same,Kd,TGFBR1,> 10 µM
same,remaining binding at 10 µM,CSNK1G3,70%
same,remaining binding at 10 µM,BMPR1A,90%
same,remaining binding at 10 µM,FGFR1,1.4%
same,remaining binding at 10 µM,MRCKB,90%
same,Kd,ERBB2,> 10 µM
same,remaining binding at 10 µM,TEC,100%
same,HSCs (LSK cells),[1],not inhibited
same,white and red blood counts,[1],normal
same,remaining binding at 10 µM,MAP3K3,100%
same,remaining binding at 10 µM,CHEK1,100%
same,remaining binding at 10 µM,ROCK1,100%
same,remaining binding at 10 µM,[2],13%
same,remaining binding at 10 µM,BRAF,2.7%
same,remaining binding at 10 µM,ERK5,70%
same,remaining binding at 10 µM,[3],29%
same,remaining binding at 10 µM,ULK3,51%
